Measurements published in patent publication EP4745137A1 (Gluetacs Therapeutics (Shanghai) Co., Ltd., priority 2023, dated 2025).

Columns and labels:
[1] = target: T1, WEE1 (Homo sapiens, UniProt P30291+Q96SW2); experiment: Western-blot assay of substrate protein degradation in hPBMCs, WEE1; type: cell-based; settings: 24 hours of compound treatment, compounds tested at 50 nM and 500 nM (concentration of the table not stated)
T1 construct: endogenous in cells; host or cells: hPBMCs (Milecell Biotechnologies)
T1 sequence (P30291 whole entry): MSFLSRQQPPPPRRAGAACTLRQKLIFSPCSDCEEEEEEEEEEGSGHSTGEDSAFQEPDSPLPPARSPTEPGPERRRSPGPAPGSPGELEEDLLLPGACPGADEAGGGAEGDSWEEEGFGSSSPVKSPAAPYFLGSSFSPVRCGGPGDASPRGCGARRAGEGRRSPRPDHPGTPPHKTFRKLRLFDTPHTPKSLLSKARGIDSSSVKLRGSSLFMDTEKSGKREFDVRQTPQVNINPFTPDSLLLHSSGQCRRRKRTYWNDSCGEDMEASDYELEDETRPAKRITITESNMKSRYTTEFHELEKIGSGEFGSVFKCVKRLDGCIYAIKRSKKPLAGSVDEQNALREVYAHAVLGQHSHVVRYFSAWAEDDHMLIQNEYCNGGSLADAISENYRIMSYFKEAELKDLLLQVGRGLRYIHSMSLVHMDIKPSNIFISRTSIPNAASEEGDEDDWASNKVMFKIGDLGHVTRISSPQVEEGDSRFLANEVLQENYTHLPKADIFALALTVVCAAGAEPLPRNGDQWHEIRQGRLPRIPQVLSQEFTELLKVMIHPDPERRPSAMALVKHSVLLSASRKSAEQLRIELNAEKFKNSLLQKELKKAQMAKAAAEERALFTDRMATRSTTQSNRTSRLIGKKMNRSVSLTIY
T1 sequence (Q96SW2 whole entry): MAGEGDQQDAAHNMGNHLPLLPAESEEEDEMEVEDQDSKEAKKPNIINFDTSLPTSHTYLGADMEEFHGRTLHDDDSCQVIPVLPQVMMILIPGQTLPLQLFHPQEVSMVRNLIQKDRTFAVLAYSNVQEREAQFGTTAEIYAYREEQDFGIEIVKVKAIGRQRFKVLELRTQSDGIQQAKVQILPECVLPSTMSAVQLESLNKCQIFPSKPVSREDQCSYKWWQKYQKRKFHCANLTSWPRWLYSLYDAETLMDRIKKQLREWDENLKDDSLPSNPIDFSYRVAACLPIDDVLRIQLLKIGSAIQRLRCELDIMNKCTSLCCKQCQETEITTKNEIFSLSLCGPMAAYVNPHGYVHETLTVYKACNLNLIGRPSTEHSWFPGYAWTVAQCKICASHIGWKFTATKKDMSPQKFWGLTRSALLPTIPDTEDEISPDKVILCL
T1 sequence (Q16531 whole entry partner): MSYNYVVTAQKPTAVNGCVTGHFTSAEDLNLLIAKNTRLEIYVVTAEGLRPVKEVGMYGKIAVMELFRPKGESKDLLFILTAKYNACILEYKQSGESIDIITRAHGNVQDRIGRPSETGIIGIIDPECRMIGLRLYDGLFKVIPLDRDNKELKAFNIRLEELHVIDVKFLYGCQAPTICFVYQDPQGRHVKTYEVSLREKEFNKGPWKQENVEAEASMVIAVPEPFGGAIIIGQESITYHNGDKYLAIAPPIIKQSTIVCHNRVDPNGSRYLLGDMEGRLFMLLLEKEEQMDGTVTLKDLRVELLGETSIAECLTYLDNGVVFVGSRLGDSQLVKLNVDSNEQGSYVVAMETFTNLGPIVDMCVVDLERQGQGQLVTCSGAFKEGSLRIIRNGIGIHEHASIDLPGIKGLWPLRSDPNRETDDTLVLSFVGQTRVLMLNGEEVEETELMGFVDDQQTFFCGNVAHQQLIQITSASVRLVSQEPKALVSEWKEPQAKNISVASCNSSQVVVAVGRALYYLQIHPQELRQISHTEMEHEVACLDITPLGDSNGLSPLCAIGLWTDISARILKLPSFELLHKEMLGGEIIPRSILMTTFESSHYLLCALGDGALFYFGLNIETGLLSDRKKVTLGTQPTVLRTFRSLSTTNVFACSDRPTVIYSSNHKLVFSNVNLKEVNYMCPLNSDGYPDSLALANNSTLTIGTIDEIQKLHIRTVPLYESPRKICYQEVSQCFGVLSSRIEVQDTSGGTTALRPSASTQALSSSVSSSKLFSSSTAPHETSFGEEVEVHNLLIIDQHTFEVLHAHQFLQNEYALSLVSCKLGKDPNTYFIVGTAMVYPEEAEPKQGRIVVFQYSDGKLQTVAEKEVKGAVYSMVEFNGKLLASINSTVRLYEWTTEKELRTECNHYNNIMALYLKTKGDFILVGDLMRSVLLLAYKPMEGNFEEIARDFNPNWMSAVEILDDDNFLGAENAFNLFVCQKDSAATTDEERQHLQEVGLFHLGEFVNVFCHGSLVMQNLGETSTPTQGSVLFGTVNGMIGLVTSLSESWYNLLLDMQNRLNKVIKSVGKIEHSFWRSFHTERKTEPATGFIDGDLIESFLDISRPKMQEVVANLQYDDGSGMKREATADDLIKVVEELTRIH

[2] = target: T2, IKZF1 (Homo sapiens, UniProt Q13422+Q96SW2); experiment: Western-blot assay of substrate protein degradation in hPBMCs, IKZF1; type: cell-based; settings: 24 hours of compound treatment, compounds tested at 50 nM and 500 nM (concentration of the table not stated)
T2 construct: endogenous in cells; host or cells: hPBMCs (Milecell Biotechnologies)
T2 sequence (Q13422 whole entry): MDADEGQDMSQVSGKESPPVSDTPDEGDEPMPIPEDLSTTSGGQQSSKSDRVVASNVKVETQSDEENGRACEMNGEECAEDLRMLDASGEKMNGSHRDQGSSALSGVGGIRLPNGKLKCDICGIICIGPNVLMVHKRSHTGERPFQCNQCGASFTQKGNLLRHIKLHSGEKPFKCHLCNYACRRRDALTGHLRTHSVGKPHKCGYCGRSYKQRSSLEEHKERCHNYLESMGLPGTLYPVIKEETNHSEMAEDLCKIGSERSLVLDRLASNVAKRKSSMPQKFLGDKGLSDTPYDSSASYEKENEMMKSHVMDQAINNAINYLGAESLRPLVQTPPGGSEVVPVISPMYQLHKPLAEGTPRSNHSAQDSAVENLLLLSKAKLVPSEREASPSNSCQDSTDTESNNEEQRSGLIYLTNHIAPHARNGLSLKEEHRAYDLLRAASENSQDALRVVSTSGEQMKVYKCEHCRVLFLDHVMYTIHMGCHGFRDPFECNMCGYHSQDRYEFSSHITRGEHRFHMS
T2 sequence (Q96SW2 whole entry): as the sequence (Q96SW2 whole entry) above
T2 sequence (Q16531 whole entry partner): as the sequence (Q16531 whole entry partner) above

[3] = target: T3, IKZF2 (Homo sapiens, UniProt Q96SW2+Q9UKS7); experiment: Western-blot assay of substrate protein degradation in hPBMCs, IKZF2; type: cell-based; settings: 24 hours of compound treatment, compounds tested at 50 nM and 500 nM (concentration of the table not stated)
T3 construct: endogenous in cells; host or cells: hPBMCs (Milecell Biotechnologies)
T3 sequence (Q9UKS7 whole entry): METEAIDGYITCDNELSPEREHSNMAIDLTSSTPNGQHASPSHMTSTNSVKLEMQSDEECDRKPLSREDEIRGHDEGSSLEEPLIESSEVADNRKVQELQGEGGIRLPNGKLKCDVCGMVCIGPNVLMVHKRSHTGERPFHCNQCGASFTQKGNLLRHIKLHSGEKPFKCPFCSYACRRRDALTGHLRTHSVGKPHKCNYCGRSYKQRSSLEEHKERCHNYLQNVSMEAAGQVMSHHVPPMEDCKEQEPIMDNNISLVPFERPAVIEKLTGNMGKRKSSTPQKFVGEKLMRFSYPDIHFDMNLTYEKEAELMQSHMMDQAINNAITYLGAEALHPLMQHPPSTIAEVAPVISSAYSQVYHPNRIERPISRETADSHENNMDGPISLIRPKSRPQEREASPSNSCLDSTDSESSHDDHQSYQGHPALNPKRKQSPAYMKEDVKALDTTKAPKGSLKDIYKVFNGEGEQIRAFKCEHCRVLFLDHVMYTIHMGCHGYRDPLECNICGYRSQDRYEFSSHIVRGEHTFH
T3 sequence (Q96SW2 whole entry): as the sequence (Q96SW2 whole entry) above
T3 sequence (Q16531 whole entry partner): as the sequence (Q16531 whole entry partner) above

[4] = target: T4, IKZF3 (Homo sapiens, UniProt Q96SW2+Q9UKT9); experiment: Western-blot assay of substrate protein degradation in hPBMCs, IKZF3; type: cell-based; settings: 24 hours of compound treatment, compounds tested at 50 nM and 500 nM (concentration of the table not stated)
T4 construct: endogenous in cells; host or cells: hPBMCs (Milecell Biotechnologies)

[5] = target: T5, CK1α (Homo sapiens, UniProt P48729+Q96SW2); experiment: Western-blot assay of substrate protein degradation in hPBMCs, CK1α; type: cell-based; settings: 24 hours of compound treatment, compounds tested at 50 nM and 500 nM (concentration of the table not stated)
T5 construct: endogenous in cells; host or cells: hPBMCs (Milecell Biotechnologies)
T5 sequence (P48729 whole entry): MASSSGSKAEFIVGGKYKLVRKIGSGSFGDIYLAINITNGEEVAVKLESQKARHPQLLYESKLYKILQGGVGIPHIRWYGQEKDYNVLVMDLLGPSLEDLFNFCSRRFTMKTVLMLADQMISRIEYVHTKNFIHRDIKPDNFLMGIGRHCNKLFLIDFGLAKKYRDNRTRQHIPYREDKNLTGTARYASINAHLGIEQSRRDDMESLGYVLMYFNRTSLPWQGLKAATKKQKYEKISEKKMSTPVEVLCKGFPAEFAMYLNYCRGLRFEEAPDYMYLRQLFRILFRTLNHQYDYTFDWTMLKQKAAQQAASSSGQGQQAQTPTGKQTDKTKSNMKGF
T5 sequence (Q96SW2 whole entry): as the sequence (Q96SW2 whole entry) above
T5 sequence (Q16531 whole entry partner): as the sequence (Q16531 whole entry partner) above

[6] = target: T6, GSPT1 (Homo sapiens, UniProt P15170+Q96SW2); experiment: Western-blot assay of substrate protein degradation in hPBMCs, GSPT1; type: cell-based; settings: 24 hours of compound treatment, compounds tested at 50 nM and 500 nM (concentration of the table not stated)
T6 construct: endogenous in cells; host or cells: hPBMCs (Milecell Biotechnologies)
T6 sequence (P15170 whole entry): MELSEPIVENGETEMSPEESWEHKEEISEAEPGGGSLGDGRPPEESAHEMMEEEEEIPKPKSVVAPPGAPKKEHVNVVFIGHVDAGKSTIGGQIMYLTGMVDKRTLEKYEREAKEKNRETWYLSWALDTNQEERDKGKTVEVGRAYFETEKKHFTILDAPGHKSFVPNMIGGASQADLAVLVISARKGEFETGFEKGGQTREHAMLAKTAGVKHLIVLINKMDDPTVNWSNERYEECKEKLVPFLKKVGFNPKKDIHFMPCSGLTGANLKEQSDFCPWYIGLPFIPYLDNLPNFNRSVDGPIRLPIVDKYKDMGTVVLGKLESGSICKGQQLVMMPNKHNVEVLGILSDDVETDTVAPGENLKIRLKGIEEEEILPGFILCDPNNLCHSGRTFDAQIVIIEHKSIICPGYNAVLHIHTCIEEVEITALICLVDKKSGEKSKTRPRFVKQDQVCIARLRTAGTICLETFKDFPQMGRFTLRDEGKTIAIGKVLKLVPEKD
T6 sequence (Q96SW2 whole entry): as the sequence (Q96SW2 whole entry) above
T6 sequence (Q16531 whole entry partner): as the sequence (Q16531 whole entry partner) above

[7] = target: T7, human Cereblon WT GST-tagged protein (Homo sapiens, UniProt Q96SW2); experiment: CRBN-binding affinity by HTRF (CEREBLON BINDING kit); settings: HTRF inhibitory activity, CEREBLON BINDING kit; read-out: HTRF IC50
T7 construct: purchased CISBIO 64BDCRBNPEH
T7 sequence (Q96SW2 whole entry): as the sequence (Q96SW2 whole entry) above

| Structure (SMILES) | IC50 [7] | Weel substrate protein remaining % [1] | IKZF 1 substrate protein remaining % [2] | IKZF2 substrate protein remaining % [3] | IKZF3 substrate protein remaining % [4] | CK1a substrate protein remaining % [5] | GSPT1 substrate protein remaining % [6] |
| --- | --- | --- | --- | --- | --- | --- | --- |
| O=C1CCC(N2Cc3cc(CN4CC5CC(C4)N5c4cccc(Cl)c4Cl)ccc3C2=O)C(=O)N1 (centres unmarked) [GT-04897, 3-(5-((6-(2,3-dichlorophenyl)-3,6-diazabicyclo[3.1.1]heptan-3-yl)methyl)-1-oxoisoindolin-2-yl)piperidine-2,6-dione] | 1500 to 1900 nM | B (80%< substrate protein remaining %≤ 100%) | B (80%< substrate protein remaining %≤ 100%) | B (80%< substrate protein remaining %≤ 100%) | B (80%< substrate protein remaining %≤ 100%) | B (80%< substrate protein remaining %≤ 100%) | A (0% ≤ substrate protein remaining % ≤ 80%) |
| O=C1CCC(N2Cc3cc(CN4CC5CCC(C4)N5c4cccc(Cl)c4Cl)ccc3C2=O)C(=O)N1 (centres unmarked) [GT-04899, 3-(5-((8-(2,3-dichlorophenyl)-3,8-diazabicyclo[3.2.1]octan-3-yl)methyl)-1-oxoisoindolin-2-yl)piperidine-2,6-dione] | 500 to 1000 nM | B (80%< substrate protein remaining %≤ 100%) | A (0% ≤ substrate protein remaining % ≤ 80%) | B (80%< substrate protein remaining %≤ 100%) | B (80%< substrate protein remaining %≤ 100%) | B (80%< substrate protein remaining %≤ 100%) | B (80%< substrate protein remaining %≤ 100%) |
| O=C1CCC(N2Cc3cc(CN4CCN(c5ccnc(O)c5F)CC4)ccc3C2=O)C(=O)N1 (centres unmarked) [GT-04929, 3-(5-((4-(3-fluoro-2-hydroxypyridin-4-yl)piperazin-1-yl)methyl)-1-oxoisoindolin-2-yl)piperidine-2,6-dione] | 500 to 1000 nM | B (80%< substrate protein remaining %≤ 100%) | A (0% ≤ substrate protein remaining % ≤ 80%) | B (80%< substrate protein remaining %≤ 100%) | B (80%< substrate protein remaining %≤ 100%) | B (80%< substrate protein remaining %≤ 100%) | A (0% ≤ substrate protein remaining % ≤ 80%) |
| O=C1CCC(N2Cc3cc(CN4CCC(c5ncc6ccsc6n5)CC4)ccc3C2=O)C(=O)N1 (centres unmarked) [GT-04933, 3-(1-oxo-5-((4-(thieno[2,3-d]pyrimidin-2-yl)piperidin-1-yl)methyl)isoindolin-2-yl)piperidine-2,6-dione] | 500 to 1000 nM | A (0% ≤ substrate protein remaining % ≤ 80%) | A (0% ≤ substrate protein remaining % ≤ 80%) | A (0% ≤ substrate protein remaining % ≤ 80%) | A (0% ≤ substrate protein remaining % ≤ 80%) | A (0% ≤ substrate protein remaining % ≤ 80%) | A (0% ≤ substrate protein remaining % ≤ 80%) |
| CCc1cnc(C2CCN(Cc3ccc4c(c3)CN(C3CCC(=O)NC3=O)C4=O)CC2)nc1 (centres unmarked) [GT-04936, 3-(5-((4-(5-ethylpyrimidin-2-yl)piperidin-1-yl)methyl)-1-oxoisoindolin-2-yl)piperidine-2,6-dione] | 1000 to 1500 nM | A (0% ≤ substrate protein remaining % ≤ 80%) | A (0% ≤ substrate protein remaining % ≤ 80%) | A (0% ≤ substrate protein remaining % ≤ 80%) | A (0% ≤ substrate protein remaining % ≤ 80%) | A (0% ≤ substrate protein remaining % ≤ 80%) | A (0% ≤ substrate protein remaining % ≤ 80%) |
| Cc1nc(C2CCN(Cc3ccc4c(c3)CN(C3CCC(=O)NC3=O)C4=O)CC2)c2c3c(sc2n1)CCCC3 (centres unmarked) [GT-04993, 3-(5-((4-(2-methyl-5,6,7,8-tetrahydrobenzo[4,5]thieno[2,3-d]pyrimidin-4-yl)piperidin-1-yl)methyl)-1-oxoisoindolin-2-yl)piperidine-2,6-dione] | < 500 nM | A (0% ≤ substrate protein remaining % ≤ 80%) | A (0% ≤ substrate protein remaining % ≤ 80%) | A (0% ≤ substrate protein remaining % ≤ 80%) | A (0% ≤ substrate protein remaining % ≤ 80%) | A (0% ≤ substrate protein remaining % ≤ 80%) | A (0% ≤ substrate protein remaining % ≤ 80%) |
| O=C1CCC(N2Cc3cc(CN4CCC(c5ncnc6sc7c(c56)CCC7)CC4)ccc3C2=O)C(=O)N1 (centres unmarked) [GT-04994, 3-(5-((4-(6,7-dihydro-5H-cyclopenta[4,5]thieno[2,3-d]pyrimidin-4-yl)piperidin-1-yl)methyl)-1-oxoisoindolin-2-yl)piperidine-2,6-dione] | < 500 nM | A (0% ≤ substrate protein remaining % ≤ 80%) | A (0% ≤ substrate protein remaining % ≤ 80%) | A (0% ≤ substrate protein remaining % ≤ 80%) | A (0% ≤ substrate protein remaining % ≤ 80%) | B (80%< substrate protein remaining %≤ 100%) | B (80%< substrate protein remaining %≤ 100%) |

Second part, led by results:

| IC50 [7] | Structure (SMILES) | Weel substrate protein remaining % [1] | IKZF 1 substrate protein remaining % [2] | IKZF2 substrate protein remaining % [3] | IKZF3 substrate protein remaining % [4] | CK1a substrate protein remaining % [5] | GSPT1 substrate protein remaining % [6] |
| --- | --- | --- | --- | --- | --- | --- | --- |
| < 500 nM | O=C1CCC(N2Cc3cc(CN4CCN(c5noc6ccncc56)CC4)ccc3C2=O)C(=O)N1 (centres unmarked) [GT-04904, 3-(5-((4-(isoxazolo[4,5-c]pyridin-3-yl)piperazin-1-yl)methyl)-1-oxoisoindolin-2-yl)piperidine-2,6-dione] | B (80%< substrate protein remaining %≤ 100%) | A (0% ≤ substrate protein remaining % ≤ 80%) | B (80%< substrate protein remaining %≤ 100%) | B (80%< substrate protein remaining %≤ 100%) | B (80%< substrate protein remaining %≤ 100%) | B (80%< substrate protein remaining %≤ 100%) |
| < 500 nM | O=C1CCC(N2Cc3cc(CN4CCN(c5nc(N6CCOCC6)c6sccc6n5)CC4)ccc3C2=O)C(=O)N1 (centres unmarked) [GT-04906, 3-(5-((4-(4-morpholinothieno[3,2-d]pyrimidin-2-yl)piperazin-1-yl)methyl)-1-oxoisoindolin-2-yl)piperidine-2,6-dione] | B (80%< substrate protein remaining %≤ 100%) | A (0% ≤ substrate protein remaining % ≤ 80%) | B (80%< substrate protein remaining %≤ 100%) | B (80%< substrate protein remaining %≤ 100%) | B (80%< substrate protein remaining %≤ 100%) | B (80%< substrate protein remaining %≤ 100%) |
| < 500 nM | O=C1CCC(N2Cc3cc(CN4CC=C(c5ncnc6scc(-c7ccccc7)c56)CC4)ccc3C2=O)C(=O)N1 (centres unmarked) [GT-04908, 3-(1-oxo-5-((4-(5-phenylthieno[2,3-d]pyrimidin-4-yl)-3,6-dihydropyridin-1(2H)-yl)methyl)isoindolin-2-yl)piperidine-2,6-dione] | A (0% ≤ substrate protein remaining % ≤ 80%) | A (0% ≤ substrate protein remaining % ≤ 80%) | A (0% ≤ substrate protein remaining % ≤ 80%) | A (0% ≤ substrate protein remaining % ≤ 80%) | B (80%< substrate protein remaining %≤ 100%) | A (0% ≤ substrate protein remaining % ≤ 80%) |
| < 500 nM | O=C1CCC(N2Cc3cc(CN4CCN(c5ccnc(Br)c5F)CC4)ccc3C2=O)C(=O)N1 (centres unmarked) [GT-04928, 3-(5-((4-(2-bromo-3-fluoropyridin-4-yl)piperazin-1-yl)methyl)-1-oxoisoindolin-2-yl)piperidine-2,6-dione] | B (80%< substrate protein remaining %≤ 100%) | B (80%< substrate protein remaining %≤ 100%) | B (80%< substrate protein remaining %≤ 100%) | B (80%< substrate protein remaining %≤ 100%) | B (80%< substrate protein remaining %≤ 100%) | A (0% ≤ substrate protein remaining % ≤ 80%) |
